What was measured:
mouse HCN1 (mHCN1) [1] = molecular target: T1, mouse HCN1 (mHCN1) (Mus musculus, UniProt O88704); assay: two-electrode voltage clamp, Xenopus oocytes, Hill fit of current; type: cell-based; conditions: read-out: relative IC50
T1 construct: full-length wild-type cDNA in pGH19, cRNA expressed in Xenopus laevis oocytes; homotetrameric channel

mouse HCN1 (mHCN1) [2] = molecular target: T1, mouse HCN1 (mHCN1); assay: as above; type: cell-based

T1 sequence (O88704 whole entry): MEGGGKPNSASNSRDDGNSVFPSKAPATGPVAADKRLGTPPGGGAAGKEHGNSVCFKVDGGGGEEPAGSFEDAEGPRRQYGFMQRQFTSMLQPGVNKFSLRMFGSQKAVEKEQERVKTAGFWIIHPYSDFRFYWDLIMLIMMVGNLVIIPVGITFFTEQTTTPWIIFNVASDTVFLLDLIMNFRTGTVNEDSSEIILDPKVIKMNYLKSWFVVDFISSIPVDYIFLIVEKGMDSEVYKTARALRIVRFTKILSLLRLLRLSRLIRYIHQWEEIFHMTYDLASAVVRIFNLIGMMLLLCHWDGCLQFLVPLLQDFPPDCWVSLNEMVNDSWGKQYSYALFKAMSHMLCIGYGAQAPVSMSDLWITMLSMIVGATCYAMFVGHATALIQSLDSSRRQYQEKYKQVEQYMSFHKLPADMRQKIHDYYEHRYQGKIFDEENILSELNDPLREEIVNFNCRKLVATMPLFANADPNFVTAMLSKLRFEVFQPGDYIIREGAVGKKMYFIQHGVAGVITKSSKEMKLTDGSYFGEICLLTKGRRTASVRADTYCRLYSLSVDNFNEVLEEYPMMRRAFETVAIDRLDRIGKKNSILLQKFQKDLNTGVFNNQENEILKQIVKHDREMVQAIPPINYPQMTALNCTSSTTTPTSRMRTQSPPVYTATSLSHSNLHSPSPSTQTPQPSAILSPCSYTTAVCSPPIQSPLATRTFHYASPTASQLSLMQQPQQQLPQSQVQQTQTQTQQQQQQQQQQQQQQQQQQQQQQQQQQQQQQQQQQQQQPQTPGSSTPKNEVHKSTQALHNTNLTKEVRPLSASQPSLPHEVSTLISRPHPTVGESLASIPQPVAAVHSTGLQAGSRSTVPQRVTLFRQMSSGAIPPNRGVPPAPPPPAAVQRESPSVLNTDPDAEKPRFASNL

`CCCCCc1cc(O)c2c(c1)OC(C)(C)[C@@H]1CCC(C)=C[C@@H]21` [Δ9-tetrahydrocannabinol] was tested, and the IC50 (mouse HCN1 (mHCN1) [1]) was 21.8 µM.
`C=C(C)[C@@H]1CCC(C)=C[C@H]1c1c(O)cc(CCCCC)cc1O` [cannabidiol] gave an EC50 (mouse HCN1 (mHCN1) [2]) of 28.5 µM.

Source: PMC9019169, “Direct Regulation of Hyperpolarization-Activated Cyclic-Nucleotide Gated (HCN1) Channels by Cannabinoids” (Frontiers in Molecular Neuroscience, 2022)
